The test system of one series is CHOK1 cells. Briefly: CellTiter-Glo cytotoxicity assay in CHOK1 cell line. Type of series: cell-based, Chinese hamster. As to conditions: Cricetulus griseus. As to the method:
(§1) To assay the potential toxicity induced in the CHO cell culture by the Trp degradation products found in this study, a cytotoxicity assay CellTiter-Glo® Luminescent Cell Viability Assay (Cat #G7572, Promega, Madison, WI, USA) was used, following the manufacturer’s instructions. Briefly, the cells were seeded with 25,000 viable cells per cavity of a 96-well opaque white cell culture plate (Thermo Fisher, Waltham, MA, USA) in 80 µL of a pre-warmed medium. Tryptophan degradation compounds were added in triplicates to the cells, ranging from 1 mM to 46 nM. A DMSO control was added in the same concentration range as the tryptophan degradation compounds were diluted. The dose response curves were fitted with a 4PL model by GraphPad Prism v.7 (GraphPad Software, San Diego, CA, USA) after luminescence readout with an EnVision 2104 Multilabel Reader (Perkin Elmer, Waltham, MA, USA).

A short description of series [1]: Color measurement (ΔE*) of standards spiked into feed. The settings on record: theoretical 500 µM, 1% DMSO, ΔE* > 1 deemed significant. Type of series: physicochemical. As to the method:
(§2) Compounds were dissolved in DMSO at 50 mM and then spiked into the solutions to achieve a final compound concentration of 500µM. Some of the tested compounds formed a precipitate immediately upon spiking of the DMSO solution. As the precipitates in solution can interfere with the absorption measurement, each sample was centrifuged prior to taking absorption measurements, meaning that the final concentrations were not all at 500 µM. […] In stability experiments, eight of these nine compounds (all except 46) were present in at least one condition in the degraded water samples, and four of these nine compounds (28, 31, 38, and 46) were present in the degraded feed.
(§3) Absorbance measurements were taken in the range of 380 nm to 780 nm (20 nm steps) of 100 µL of the samples in four technical replicates (Envision, Perkin Elmer, Waltham, MA, USA). From the absorbance values, the change in color was calculated using L*a*b* and ΔE* values according to DIN 5033-3 and DIN 6174 norms. The CIE 1931 standard observer (2°) and the D65 illuminant were selected.
(§4) Chemical standards were prepared as 50 mM stocks in DMSO and then spiked into the aqueous solutions (either water or feed) to achieve a theoretical compound concentration of 500 µM (1% DMSO). The solutions were centrifuged, and the absorbance measurements of these solutions was measured and converted to ΔE* values as described above. The control condition was pure DMSO (1% v/v).

The next series relates to bacteria. Further details: method as in PMID 24930832. The settings on record: cited from earlier work.
Another series has as its system CHO cells. Briefly: CHO cell toxicity summarised across the four CHO cell lines. Type of series: cell-based, Chinese hamster. The settings on record: Cricetulus griseus, read-out: GI50 across all cell lines. The method, then:
as §1

The subject of another series is CHOZN 6 cells. Briefly: CellTiter-Glo cytotoxicity assay in CHOZN 6 cell line. Type of series: cell-based, Chinese hamster. As to conditions: Cricetulus griseus, read-out: [GI50] CHOZN 6. The method, then: as §1
A further series has as its system human cancer cell lines. Further details: method as in PMID 24930832. The settings on record: cited from earlier work.
In another series the test system is CHOZN 10 cells. The experiment in a line: CellTiter-Glo cytotoxicity assay in CHOZN 10 cell line. The format is cell-based, Chinese hamster. The settings on record: Cricetulus griseus, read-out: [GI50] CHOZN 10. The method, then: as §1
(In general: In ATP-based viability assays light output follows the ATP content of the culture.)

For a further series, the system named is CHOK1 GS cells. Briefly: CellTiter-Glo cytotoxicity assay in CHOK1 GS cell line. The format is cell-based, Chinese hamster. The settings on record: Cricetulus griseus. The method, then:
To assay the potential toxicity induced in the CHO cell culture by the Trp degradation products found in this study, a cytotoxicity assay CellTiter-Glo® Luminescent Cell Viability Assay (Cat #G7572, Promega, Madison, WI, USA) was used, following the manufacturer’s instructions. Briefly, the cells were seeded with 25,000 viable cells per cavity of a 96-well opaque white cell culture plate (Thermo Fisher, Waltham, MA, USA) in 80 µL of a pre-warmed medium. […] A DMSO control was added in the same concentration range as the tryptophan degradation compounds were diluted.

A short description of series [2]: Color measurement (ΔE*) of standards spiked into water. The format is physicochemical. The settings on record: theoretical 500 µM, 1% DMSO, ΔE* > 1 deemed significant. As to the method:
as §2, §3, §4

The test system of series [3] is cancerous and non-cancerous human cell lines. Further details: method as in PMID 28720329, PMID 22819942, PMID 32792961. As to conditions: wide range of human cell lines; cited from earlier work.
The nature of series [4]: Degradation of tryptophan in water under stressed conditions. Type of series: physicochemical. As to conditions: 10 mM Trp in water pH 7, 70 °C, after 24 days. The method, then: For the Trp solutions, 10 mM Trp solutions were prepared in water with a pH adjustment to pH 7.0 ± 0.3 using NaOH(aq.) and sterile filtered with Steriflip® filter units (Merck, Darmstadt, Germany). For H2O2 exposure testing, the solutions were spiked with hydrogen peroxide (30%, 8.82 M) to 0, 10, 25, 50, or 100 mM, and stored for 4h at RT (~19–23 °C), light-protected. For the UV exposure effects, the solutions were stored for 4 h under a UV-lamp set to an intensity of 540 V (UV-A, -B and -C radiation). Samples tested for temperature effects were stored light-protected for 24 days at 4 °C, room temperature (RT, i.e., ~19–23 °C), 37 °C, or 70 °C. Feed solutions were sterile-filtered as above and stored for 98 days at 4 °C, RT (~19–23 °C) or 37 °C. The samples were either stored light-protected or exposed to laboratory fluorescent lighting with partial exposure to glass-filtered daylight (light-exposed). For testing the a-ketoglutaric acid effects in feed, dry powder feed was reconstituted with a-ketoglutaric acid, pH adjusted to 7.0 ± 0.3 with NaOH (aq.), filtered as above, and stored light-protected at RT (~19–23 °C) or 37 °C for 98 days. Ammonia was quantified using Cedex Bio HT (Roche, Mannheim, Germany). Aliquots were frozen at −20 °C for subsequent amino acid analysis and LC-MS.
Amino acid analysis was performed using a pre-column derivatization using the AccQ Tag® Ultra Reagent kit. […]

These results are taken from publication PMC8228365, “Degradation Products of Tryptophan in Cell Culture Media: Contribution to Color and Toxicity” (International Journal of Molecular Sciences, 2021).

Like-named read-outs stand apart in the source and are kept apart here.

As usually defined, the GI50 is the concentration giving 50% growth inhibition. For the compound `c1ccc2c(-c3nccc4c3[nH]c3ccccc34)c[nH]c2c1` [Compound 34, 1-(1H-Indol-3-yl)-9H-pyrido[3,4-b]indole], the concentration for 50% growth inhibition (GI50) with CHOK1 cells (CHO-K1, CHOK1 cell line, 1 mM to 46 nM, 4PL fit, read-out: [GI50] CHOK1) was 10.6 µM; in the series with CHO cells (across all four CHO cell lines), 10 to 22 µM; in the series on CHOZN 6 cells (CHOZN 6 cell line, 1 mM to 46 nM, 4PL fit), 12.3 µM; in the series on CHOZN 10 cells (CHOZN 10 cell line, 1 mM to 46 nM, 4PL fit), 13.1 µM; in the series with CHOK1 GS cells (CHO-K1, CHOK1 GS cell line, 1 mM to 46 nM, 4PL fit, read-out: [GI50] CHOK1 GS) it was 24 µM. Also, in series [1], the “Color change as measured by ΔE* in feed” value is recorded as “significant color change”. Further, in the series on bacteria, the antibacterial activity result was “most potent as an antibacterial agent”. Moreover, the “toxicity in human cancer cell lines” value with human cancer cell lines is “some toxicity”. In addition, the “Color change as measured by ΔE* in water” value in [2] is “significant color change”.
Turning to `O=C1c2ccccc2-n2c1nc1ccccc1c2=O` [Compound 39, Tryptanthrin], the 50% growth inhibitory concentration (GI50) was 0.2 µM with CHOK1 cells (CHO-K1, read-out: [GI50] CHOK1); at most 1.1 µM with CHO cells (CHO); 1.1 µM in the series with CHOZN 6 cells; 1.05 µM with CHOZN 10 cells; under 0.13 µM in the series with CHOK1 GS cells (CHO-K1, read-out: [GI50] CHOK1 GS). The “toxicity against cancerous and non-cancerous human cell lines” value in series [3] was “low micromolar toxicity”. Further, the “Color change as measured by ΔE* in feed” value in [1] was “significant color change”. Further, the “Color change as measured by ΔE* in water” value in [2] was “significant color change”.
Compound `N[C@@H](Cc1c[nH]c2ccccc12)C(=O)O` [Trp, L-Tryptophan] yielded a Trp total loss in series [4] of 42%.
